Assay results taken from patent publication US20090176759A1, “LEUKEMIC STEM CELL ABLATION” (ChemGenex Pharmaceuticals, Inc., priority 2007, published 2009).

Key:
[1] = test system: MCL-1; assay: Western Blot analysis of MCL-1 expression in K562 cells; assay type: cell-based; conditions: K562 (myeloid) cells
Description: (§1) In FIG. 1A the number of viable cells at the indicated drug concentrations was determined by trypan blue. In FIG. 1B the expression of ABL and MCL-1 in K562 (myeloid) cells is inhibited by HHT. In FIG. 1C the expression of ABL in lymphoid cells with BCR-ABL or the BCR-ABL T315I mutation is inhibited by HHT.
(§2) Antibodies for Western Blot analysis against c-ABL, Mcl-1 and β-actin were purchased from Santa Cruz Biothechology (Santa Cruz, Calif.). Protein lysates were prepared by lysing cells in RIPA buffer and immunoprecipitation. The retroviral vector MSCV-IRES-eGFP carrying the BCR-ABL cDNA was used to make virus stock for bone marrow transduction/transplantation. Four- to 10-week-old wild-type BABL/c or C57BL/6 (The Jackson Laboratory) and homozygous SRC triple gene knockout (Lyn−/−Hck−/−Fgr−/−) mice were used for leukemogenesis experiments. HHT (ChemGenex Pharmaceuticals, Inc, CA) was dissolved in accompanying diluent to a stock concentration of 1 mg/ml. Further dilutions were made to working concentrations using media or water.

[2] = test system: ABL; assay: Western Blot analysis of ABL expression; assay type: cell-based
Description: as §1, §2

[3] = test system: BCR-ABL-induced B-ALL; assay: Mice with BCR-ABL-induced B-ALL treated with HHT; assay type: in vivo
Description: FIG. 4A is a FACS analysis evaluation of the leukemic process in HHT or placebo treated B-ALL mice after 4 days or 10 days.
as §2

[4] = test system: BCR-ABL-WT-induced CML; assay: Mice with BCR-ABL-WT-induced CML treated with HHT; assay type: in vivo
Description: (§3) FIG. 2A is a FACS analysis of circulating GFP+ cells in mice with BCR-ABL-WT-induced CML. […] The number of circulating leukemic cells (calculated as percentage of Gr-1+GFP+ cells×white blood cell count) in mice with BCR-ABL-WT-induced CML treated with placebo or HHT for 4 days was determined on day 12 after transplantation. FIG. 2B depicts a bar graph for the leukemic cells as well as a bar graph for spleen weight of the mice treated with placebo or HHT.
as §2
as §3, with “of circulating leukemic GFP+ cells” for “of circulating GFP+ cells”

[5] = test system: BCR-ABL-T315I-induced CML; assay: Mice with BCR-ABL-T315I-induced CML treated with HHT; assay type: in vivo
Description: In FIG. 3A, the number of circulating leukemic cells (calculated as percentage of Gr-1+GFP+ cells×white blood cell count) in mice with BCR-ABL-T315I-induced CML treated with placebo or HHT was determined on day 14 after transplantation.
as §2
The number of circulating leukemic cells (calculated as percentage of Gr-1+GFP+ cells×white blood cell count) in mice with BCR-ABL-T315I-induced CML treated with placebo or HHT (0.5 mg/kg) was determined on day 14 after transplantation.

[6] = test system: T315I mutated BCR-ABL transcripts; assay: Peripheral blood BCR-ABL transcript levels by qRT-PCR and KD mutation analyses during omacetaxine therapy; assay type: in vivo, human
Description: Presence of T315I is confirmed at study entry at one of two reference labs (University of Texas MD Anderson Cancer Center or University of Heidelberg, Medizinische Fakultat Mannheim).
Peripheral blood BCR-ABL transcript levels are determined during omacetaxine therapy by quantitative real-time polymerase chain reaction (qRT-PCR) and BCR-ABL KD mutation analyses.

[7] = test system: B-cells containing BCR-ABL-WT; assay: Proliferation, number of viable cells determined by trypan blue; assay type: cell-based
Description: as §1, §2

[8] = test system: B-cells containing BCR-ABL-T315I; assay: as above; assay type: cell-based
Description: as §1, §2

[9] = test system: K562 myeloid cells; assay: as above; assay type: cell-based
Description: as §1, §2

Question: For COC(=O)C[C@](O)(CCCC(C)(C)O)C(=O)O[C@@H]1C(OC)=C[C@]23CCCN2CCc2cc4c(cc2[C@H]13)OCO4 [HHT, Homoharringtonine], which “expression of MCL-1” value [1] is on record?
Answer: The value was “inhibited”.

Question: What about the “expression of ABL” value ([2]; K562 (myeloid) cells) of the same compound?
Answer: The value was “inhibited”.

Question: And the “expression of ABL” value ([2]; lymphoid cells with BCR-ABL)?
Answer: The value was “inhibited”.

Question: And the “expression of ABL” value ([2]; lymphoid cells with the BCR-ABL T315I mutation)?
Answer: Its value is “inhibited”.

Question: What about the “leukemic cells (FACS)” value ([3]; B-ALL mice after 4 days or 10 days, HHT vs placebo) of the same compound?
Answer: Its value is “significant reduction in leukemic cells as a function of treatment time and HHT dosage”.

Question: What about the survival ([3]; B-ALL mice, HHT 1 mg/kg) of the same compound?
Answer: Its survival is “prolonged survival”.

Question: And the survival ([4]; BCR-ABL-WT CML mice, HHT vs placebo)?
Answer: The survival was “significantly increased”.

Question: And the “number of circulating leukemic cells (percentage of Gr-1+GFP+ cells×white blood cell count)” value ([4]; HHT 0.5 mg/kg for 4 days, day 12 after transplantation, vs placebo)?
Answer: The value was “significantly reduces”.

Question: What about the “size of the spleen (spleen weight)” value ([4]; HHT 0.5 mg/kg vs placebo) of the same compound?
Answer: The value was “significantly reduces”.

Question: And the survival ([5]; BCR-ABL-T315I CML mice, HHT vs placebo)?
Answer: Its survival is “prolonged survival”.

Question: And the “number of circulating leukemic cells (percentage of Gr-1+GFP+ cells×white blood cell count)” value ([5]; HHT 0.5 mg/kg, day 14 after transplantation, vs placebo)?
Answer: Its value is “significantly reduced”.

Question: And the “evaluable patients with T315I mutated BCR-ABL transcripts reduced below the detection level” value ([6]; 5/13 evaluable patients)?
Answer: Its value is 38%.

Question: What about the T315I mutated clone ([6]; CP patients (FIG. 8)) of the same compound?
Answer: Its T315I mutated clone is “rapidly and substantially reduced”.

Question: What about the “patients in whom the T315I clone is reduced to below the limits of detection” value ([6]; chronic phase patients (FIG. 8)) of the same compound?
Answer: Its value is 64%.

Question: What about the T315I clone ([6]; heavily-pretreated patients with IM-resistant T315I+CML) of the same compound?
Answer: Its T315I clone is “complete elimination of the T315I clone in a number of heavily-pretreated patients”.

Question: What about the proliferation [7] of the same compound?
Answer: The proliferation was “inhibits the proliferation”.

Question: And the proliferation [8]?
Answer: The proliferation was “inhibits the proliferation”.

Question: What about the proliferation [9] of the same compound?
Answer: The proliferation was “inhibits the proliferation”.
